Data from patent publication US20200085776A1, “Methods of Reducing C-Reactive Protein and/or Treating Cardiovascular Disease” (CARDAX, INC., priority 2018, published 2020).

Test system: Triglycerides
Test: Fasting lipid panel: triglycerides, CHASE clinical study
Assay type: in vivo, human
Settings: for Triglycerides V2 to V6 % Change Max / Triglycerides V2 to V6 % Change Mean (SD) / Triglycerides V2 to V6 % Change Median / Triglycerides V2 to V6 % Change Min / Triglycerides V2 to V6 Change Max / Triglycerides V2 to V6 Change Mean (SD) / Triglycerides V2 to V6 Change Median / Triglycerides V2 to V6 Change Min: baseline to Week 12
Source text: Blood samples shall be obtained under fasted conditions for a lipid panel at V2, V4, V6, V7, and V8. This panel shall include total cholesterol, LDL-C, VLDL-C, HDL-C, and triglycerides. A minimum eight-hour fast (water allowed) is required for the lipid panel.
Fasting lipid profiles and fasting chemistry panels may be obtained within the visit time window on a day separate from the scheduled office visit, within two days before or after the other study procedures. A minimum of eight hours fasted (water allowed ad lib) is required.
Table 7M provides the changes in lipid levels (mg/dL) (V2 to V6) for subjects.

[1] = Group X 12 mg BID, V2 baseline pre-dose, all subjects
[2] = Group X 12 mg BID, V2 baseline pre-dose, subjects with hyperlipidemia
[3] = Group X 12 mg BID, V6 Week 12, all subjects
[4] = Group X 12 mg BID, V6 Week 12, subjects with hyperlipidemia
[5] = Group X 12 mg BID, all subjects
[6] = Group X 12 mg BID, subjects with hyperlipidemia
[7] = Group Z 48 mg BID, V2 baseline pre-dose, all subjects
[8] = Group Z 48 mg BID, V2 baseline pre-dose, subjects with hyperlipidemia
[9] = Group Z 48 mg BID, V6 Week 12, all subjects
[10] = Group Z 48 mg BID, V6 Week 12, subjects with hyperlipidemia
[11] = Group Z 48 mg BID, all subjects
[12] = Group Z 48 mg BID, subjects with hyperlipidemia

## CC1=C(/C=C/C(C)=C/C=C/C(C)=C/C=C/C=C(C)/C=C/C=C(C)/C=C/C2=C(C)C(=O)C(O)CC2(C)C)C(C)(C)CC(O)C1=O (stereo not shown) [Astaxanthin, astaxanthin]
[1]
  Triglycerides Max: 482.0 mg/dL
  Triglycerides Mean (SD): 201.9 (122.2) mg/dL
  Triglycerides Median: 177.0 mg/dL
  Triglycerides Min: 59.00 mg/dL
[2]
  Triglycerides Max: 482.0 mg/dL
  Triglycerides Mean (SD): 235.8 (126.1) mg/dL
  Triglycerides Median: 253.5 mg/dL
  Triglycerides Min: 80.00 mg/dL
[3]
  Triglycerides Max: 420.0 mg/dL
  Triglycerides Mean (SD): 177.4 (109.8) mg/dL
  Triglycerides Median: 131.0 mg/dL
  Triglycerides Min: 70.00 mg/dL
[4]
  Triglycerides Max: 420.0 mg/dL
  Triglycerides Mean (SD): 202.3 (120.2) mg/dL
  Triglycerides Median: 211.5 mg/dL
  Triglycerides Min: 70.00 mg/dL
[5]
  Triglycerides V2 to V6 % Change Max: 42.37%
  Triglycerides V2 to V6 % Change Mean (SD): −7.10 (27.88) %
  Triglycerides V2 to V6 % Change Median: −12.9%
  Triglycerides V2 to V6 % Change Min: −61.5%
  Triglycerides V2 to V6 Change Max: 56.00 mg/dL
  Triglycerides V2 to V6 Change Mean (SD): −24.6 (59.47) mg/dL
  Triglycerides V2 to V6 Change Median: -26.0 mg/dL
  Triglycerides V2 to V6 Change Min: -166 mg/dL
[6]
  Triglycerides V2 to V6 % Change Max: 22.76%
  Triglycerides V2 to V6 % Change Mean (SD): −12.9 (26.00) %
  Triglycerides V2 to V6 % Change Median: −14.5%
  Triglycerides V2 to V6 % Change Min: −61.5%
  Triglycerides V2 to V6 Change Max: 56.00 mg/dL
  Triglycerides V2 to V6 Change Mean (SD): −33.5 (66.92) mg/dL
  Triglycerides V2 to V6 Change Median: -34.0 mg/dL
  Triglycerides V2 to V6 Change Min: -166 mg/dL
[7]
  Triglycerides Max: 1677 mg/dL
  Triglycerides Mean (SD): 283.5 (368.2) mg/dL
  Triglycerides Median: 175.0 mg/dL
  Triglycerides Min: 75.00 mg/dL
[8]
  Triglycerides Max: 1677 mg/dL
  Triglycerides Mean (SD): 321.9 (407.8) mg/dL
  Triglycerides Median: 182.0 mg/dL
  Triglycerides Min: 82.00 mg/dL
[9]
  Triglycerides Max: 650.0 mg/dL
  Triglycerides Mean (SD): 192.2 (155.1) mg/dL
  Triglycerides Median: 145.5 mg/dL
  Triglycerides Min: 63.00 mg/dL
[10]
  Triglycerides Max: 650.0 mg/dL
  Triglycerides Mean (SD): 213.1 (170.3) mg/dL
  Triglycerides Median: 149.5 mg/dL
  Triglycerides Min: 76.00 mg/dL
[11]
  Triglycerides V2 to V6 % Change Max: 115.2%
  Triglycerides V2 to V6 % Change Mean (SD): −0.96 (43.74) %
  Triglycerides V2 to V6 % Change Median: −16.2%
  Triglycerides V2 to V6 % Change Min: −49.5%
  Triglycerides V2 to V6 Change Max: 348.0 mg/dL
  Triglycerides V2 to V6 Change Mean (SD): −9.89 (109.9) mg/dL
  Triglycerides V2 to V6 Change Median: -24.5 mg/dL
  Triglycerides V2 to V6 Change Min: -178 mg/dL
[12]
  Triglycerides V2 to V6 % Change Max: 115.2%
  Triglycerides V2 to V6 % Change Mean (SD): 0.07 (48.86) %
  Triglycerides V2 to V6 % Change Median: −21.5%
  Triglycerides V2 to V6 % Change Min: −49.5%
  Triglycerides V2 to V6 Change Max: 348.0 mg/dL
  Triglycerides V2 to V6 Change Mean (SD): −12.0 (124.4) mg/dL
  Triglycerides V2 to V6 Change Median: -29.0 mg/dL
  Triglycerides V2 to V6 Change Min: -178 mg/dL
